Experimental findings from PMC7382742, “Identification of Potential Inhibitors of Calcium/Calmodulin-Dependent Protein Kinase IV from Bioactive Phytoconstituents” (Oxidative Medicine and Cellular Longevity, 2020) are described below.

In assay [1] the target is T1, Calcium/calmodulin-dependent protein kinase IV (CaMKIV) (Homo sapiens, UniProt Q16566).
T1 construct: gene CAMK4; CaMKIV kinase domain
T1 sequence (Q16566 46-300 limits assumed): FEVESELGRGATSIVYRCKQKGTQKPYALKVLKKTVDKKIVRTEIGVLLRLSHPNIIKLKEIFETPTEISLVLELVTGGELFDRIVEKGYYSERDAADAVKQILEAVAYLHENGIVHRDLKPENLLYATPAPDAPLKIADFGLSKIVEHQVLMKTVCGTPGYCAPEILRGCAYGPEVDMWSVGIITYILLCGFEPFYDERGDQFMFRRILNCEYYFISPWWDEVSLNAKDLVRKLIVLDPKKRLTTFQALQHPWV
The assay is described as follows: malachite green (BIOMOL Green) ATPase inhibition assay with recombinant refolded CaMKIV; also intrinsic fluorescence quenching (Ksv […] ^-1). The assay is classed as biochemical.

Assay [2] deals with T1, Calcium/calmodulin-dependent protein kinase IV (CaMKIV). The assay is described as follows: malachite green (BIOMOL Green) ATPase inhibition assay with recombinant refolded CaMKIV; also intrinsic fluorescence quenching (binding constant […] ^-1). The assay is classed as biochemical.

By IC50 is commonly meant the concentration that gives 50% inhibition. Regarding `O=c1c(O)c(-c2ccc(O)c(O)c2)oc2cc(O)cc(O)c12` [quercetin], the 50% inhibitory concentration (IC50) in assay [1] was determined as 61.3 ± 5.4 µM.

Turning to `O=c1oc2c(O)c(O)cc3c(=O)oc4c(O)c(O)cc1c4c23` [EA, ellagic acid], the IC50 in assay [2] was determined as 39.7 ± 8.6 µM.
